Format in all cases: in vivo
The subject of experiment [1] is male CD1 mice on high-cholesterol diet. Description: Plasma total cholesterol levels in male CD1 mice on high-cholesterol diet. The conditions noted are these: for % Reduction total cholesterol: VS Cont. (high-cholesterol diet control, group 1); for Total-cholesterol (mg/dL) Mean values ± S.E.: plasma, oral twice a day for 17 days and one time on day 18, blood 8 h from last treatment, post-absorptive, monacolin K 2, fish oil 200, hexacosanol 25, resveratrol 5, Coenzyme Q10 50, vitamin B6 0.3, vitamin B12 0.25, L-carnitine 20 mg/kg. Further details: % Reduction total cholesterol: concentration or dose not given beside the values. As for the experimental part:
(§1) Male CD 1 mice on a high-cholesterol diet (DP/104, Altromin-Rieper) for about 25 days were used. An acclimatization period of seven days was allowed before the start of the high-cholesterol diet.
(§2) Mice were housed inside cages with stainless steel cover-feed and sterilized and dust-free bedding cobs. Animals were housed under a light-dark cycle, keeping temperature and humidity constant. Parameters of the animal rooms are assessed as follows: 22±2° C. temperature, 55±10% relative humidity, about 15-20 filtered air changes/hour and 12 hours circadian cycle of artificial light (7 a.m., 7 p.m.). The environmental conditions were monitored.
(§3) Mice were divided into groups (10 mice per group) and treated orally (1 mL) twice daily with the compounds of the invention or their combinations at the doses reported in the following:
(§4) monacolin K 2 mg/kg (dissolved in water);
(§5) fish oil 200 mg/kg (dissolved in ethanol);
(§6) Hexacosanol 25 mg/kg (dissolved in ethanol);
(§7) resveratrol 5 mg/kg (dissolved in ethanol);
(§8) Coenzyme Q10 50 mg/kg (dissolved in water);
(§9) Vitamin B6 0.3 mg/kg (dissolved in water);
(§10) Vitamin B12 0.25 mg/kg (dissolved in water);
(§11) L-carnitine 20 mg/kg (dissolved in water).
(§12) At the start of treatment, the body weight of the animals was checked and monitoring of the animals' consumption of water and feed was scheduled.
(§13) On day 18, plasma cholesterol, triglyceride and HDL cholesterol were evaluated. […]

For experiment [2] the test system is unchanged. Put plainly: Plasma HDL-cholesterol levels in male CD1 mice on high-cholesterol diet. Particulars: for % of increase HDL-cholesterol: VS Cont. (high-cholesterol diet control, group 1); for HDL-cholesterol: plasma, mean values ± S.E., oral twice a day for 17 days and one time on day 18, blood 8 h from last treatment, post-absorptive, monacolin K 2, fish oil 200, hexacosanol 25, resveratrol 5, Coenzyme Q10 50, vitamin B6 0.3, vitamin B12 0.25, L-carnitine 20 mg/kg. As for the experimental part:
as §1, §2, §3, §4, §5, §6, §7, §8, §9, §10, §11, §12, §13

Experiment [3] shares this test system. Description: Plasma triglycerides levels in male CD1 mice on high-cholesterol diet. Set-up: % Reduction triglycerides: concentration or dose not given beside the values. The conditions noted are these: for % Reduction triglycerides: VS Cont. (high-cholesterol diet control, group 1); for Triglycerides (mg/dL) Mean values ± S.E.: plasma, oral twice a day for 17 days and one time on day 18, blood 8 h from last treatment, post-absorptive, monacolin K 2, fish oil 200, hexacosanol 25, resveratrol 5, Coenzyme Q10 50, vitamin B6 0.3, vitamin B12 0.25, L-carnitine 20 mg/kg. As for the experimental part:
as §1, §2, §3, §4, §5, §6, §7, §8, §9, §10, §11, §12, §13

For the molecule `COC1=C(OC)C(=O)C(C/C=C(\C)CC/C=C(\C)CC/C=C(\C)CC/C=C(\C)CC/C=C(\C)CC/C=C(\C)CC/C=C(\C)CC/C=C(\C)CC/C=C(\C)CCC=C(C)C)=C(C)C1=O` [Coenzyme Q10], in experiment [1], the “% Reduction total cholesterol” value was −3% and the “Total-cholesterol (mg/dL) Mean values ± S.E.” value (from here on “Total-cholesterol”) is listed as 355.8 ± 25.2 mg/dL. Moreover, in experiment [2], the “% of increase HDL-cholesterol” value is listed as “+4%” and the “HDL-cholesterol” value turned out to be 23.9 ± 2.2 mg/dL. In addition, in experiment [3], the “% Reduction triglycerides” value is given as −3% and the “Triglycerides (mg/dL) Mean values ± S.E.” value was 196.4 ± 22.1 mg/dL.
With `CCCCCCCCCCCCCCCCCCCCCCCCCCO` [Hexacosanol], in experiment [1], the “% Reduction total cholesterol” value is on record as −16% and the “Total-cholesterol” value was 307.2 ± 23.9 mg/dL. In experiment [2], the “% of increase HDL-cholesterol” value is “+15%” and the “HDL-cholesterol” value was 26.4 ± 2.0 mg/dL. Further, in experiment [3], the “% Reduction triglycerides” value is −15% and the “Triglycerides (mg/dL) Mean values ± S.E.” value is listed as 172.1 ± 12.3 mg/dL.
Consider `C[N+](C)(C)C[C@H](O)CC(=O)[O-]` [L-carnitine], for which, in experiment [1], the “% Reduction total cholesterol” value is −12% and the “Total-cholesterol” value is recorded as 322.8 ± 21.1 mg/dL. Also, in experiment [2], the “% of increase HDL-cholesterol” value is given as “+21%” and the “HDL-cholesterol” value stood at 27.8 ± 2.1 mg/dL. Moreover, in experiment [3], the “% Reduction triglycerides” value is given as −5% and the “Triglycerides (mg/dL) Mean values ± S.E.” value came to 192.3 ± 16.4 mg/dL.
On to `CC[C@H](C)C(=O)O[C@H]1C[C@@H](C)C=C2C=C[C@H](C)[C@H](CC[C@@H]3C[C@@H](O)CC(=O)O3)[C@H]21` [Monacolin K, monacolin K], for which, in experiment [1], the “% Reduction total cholesterol” value is −21% and the “Total-cholesterol” value is listed as 289.7 ± 21.0 mg/dL. Also, in experiment [2], the “% of increase HDL-cholesterol” value is recorded as “+10%” and the “HDL-cholesterol” value came to 25.3 ± 2.1 mg/dL. In addition, in experiment [3], the “% Reduction triglycerides” value was −8% and the “Triglycerides (mg/dL) Mean values ± S.E.” value amounted to 186.3 ± 20.8 mg/dL.
With `Oc1ccc(/C=C/c2cc(O)cc(O)c2)cc1` [Resveratrol, trans-3,4′,5-trihydroxystilbene], in experiment [1], the “% Reduction total cholesterol” value is on record as −4% and the “Total-cholesterol” value amounted to 352.1 ± 19.1 mg/dL. In experiment [2], the “% of increase HDL-cholesterol” value is on record as “+3%” and the “HDL-cholesterol” value is on record as 23.7 ± 1.9 mg/dL. In experiment [3], the “% Reduction triglycerides” value is recorded as −22% and the “Triglycerides (mg/dL) Mean values ± S.E.” value was found to be 157.9 ± 12.4 mg/dL.
For `Cc1ncc(CO)c(CO)c1O.Cl` [Vitamin B6], in experiment [1], the “% Reduction total cholesterol” value is on record as −5% and the “Total-cholesterol” value came to 348.5 ± 18.5 mg/dL. Besides, in experiment [2], the “% of increase HDL-cholesterol” value is listed as “+5%” and the “HDL-cholesterol” value was 24.1 ± 2.5 mg/dL. Besides, in experiment [3], the “% Reduction triglycerides” value is listed as −4% and the “Triglycerides (mg/dL) Mean values ± S.E.” value is listed as 194.3 ± 16.7 mg/dL.
Consider cobalamin [Vitamin B12], for which, in experiment [1], the “% Reduction total cholesterol” value is recorded as −4% and the “Total-cholesterol” value came out at 352.1 ± 20.2 mg/dL. In experiment [2], the “% of increase HDL-cholesterol” value is “+5%” and the “HDL-cholesterol” value amounted to 24.3 ± 23 mg/dL. In experiment [3], the “% Reduction triglycerides” value is −4% and the “Triglycerides (mg/dL) Mean values ± S.E.” value is 194.5 ± 17.4 mg/dL.

Source of the values: patent publication US9125903B2, “Composition useful for the treatment of lipid metabolism disorders” (SIGMA-TAU INDUSTRIE FARMACEUTICHE RIUNITE, S.P.A., priority 2011, dated 2015).
